Measurements published in patent US20110183995A1, “ELTOPRAZINE FOR SUPPRESSION OF L-DOPA INDUCED DYSKINESIAS” (Neurosearch A/S, priority 2008, published 2011).

Experiments:
6-OHDA-lesioned rats = assay: Antidyskinetic effect of Eltoprazine in the rat 6-OHDA model (L-DOPA-induced dyskinesia, total AIM score); format: in vivo; details: for reduction of dyskinesia (total score: limb, axial and orolingual): compared to the control L-DOPA-only treated group, two-hour test
Description: In this experiment we determined the antidyskinetic properties of Eltoprazine.
6-OHDA-lesioned rats were made dyskinetic and allocated into three well-balanced groups (n=6 per group), which were challenge on the day of the experiments with L-DOPA-only, L-DOPA plus Eltoprazine 0.1 mg/kg or L-DOPA plus Eltoprazine 0.3 mg/kg, respectively.
Limb, axial and orolingual dyskinesias were scored over the tow-hour test and the sum is reported here as the total score, and the results are presented in FIG. 4.

PD patients = details: large phase III clinical trial, terminated; cited from earlier work

Row | Structure (SMILES) | reduction of dyskinesia (total score: limb, axial and orolingual) (6-OHDA-lesioned rats; Eltoprazine 0.1 mg/kg plus L-DOPA) | reduction of dyskinesia (total score: limb, axial and orolingual) (6-OHDA-lesioned rats; Eltoprazine 0.3 mg/kg plus L-DOPA) | suppression of L-DOPA-induced dyskinesia (6-OHDA-lesioned rats; rats, higher dose alone) | clinical antidyskinetic efficacy (PD patients)
1 | c1cc2c(c(N3CCNCC3)c1)OCCO2 [Eltoprazine, 1-(2,3-Dihydro-benzo[1,4]dioxin-5-yl)piperazine] | approximately 50% | near-complete abolishment | near-complete suppression | –
2 | Fc1ccc(-c2cncc(CNC[C@H]3CCc4ccccc4O3)c2)cc1 [Sarizotan] | – | – | – | lack of efficacy
